According to patent US20240180900A1, “COMPOUNDS AND METHODS FOR THE TARGETED DEGRADATION OF ANDROGEN RECEPTOR” (Arvinas Operations, Inc., priority 2022, published 2024):

Columns and labels:
[1] = molecular target: T1, AR WT (Homo sapiens, UniProt P10275); assay: AR degradation in T-Rex-293 cell line, wild-type AR; assay type: cell-based; conditions: T-Rex-293, ELISA
T1 construct: expressed in transfected cells; host or cells: T-REx-293
Description: (§1) FIG. 3 is a graph showing Compound A's ability to degrade clinically relevant mutated forms AR.
(§2) Plasmids expressing AR WT or the indicated AR mutants were stably transfected into HEK293 cells. Each cell line was treated with indicated concentrations of Compound A for 24 hours. AR levels were determined by AR ELISA without background subtraction. […]
(§3) To assess the ability of Compound A to degrade variants of the AR, vectors expressing wild-type AR or mutant AR proteins harboring clinically observed mutations in the ligand binding domain (13 with single amino acid changes or 4 with 2 amino acid changes) (Azad A. A., Volik S. V., Wyatt A. W., et al. Androgen receptor gene aberrations in circulating cell-free DNA: biomarkers of therapeutic resistance in castration-resistant prostate cancer. Clin Cancer Res. 2015; 21:2315-2324; Robinson D., Van Allen E. M., Wu Y. M., et al. Integrative clinical genomics of advanced prostate cancer. Cell. 2015; 161:1215-1228; Ledet E. M., Lilly M. B., Sonpavde G., et al. Comprehensive analysis of AR alterations in circulating tumor DNA from patients with advanced prostate cancer. Oncologist.

[2] = system: VCaP tumor xenograft; assay: castrated mouse VCaP xenograft model, tumor growth inhibition; assay type: in vivo; conditions: castrated mice
Description: Treatment groups (n=10 per group) were compared by one-way analysis of variance (ANOVA). Note: ns: not significant, *: p≤0.05, **: p≤0.01, ***: p≤0.001.
The anti-tumor growth effects of Compound A in vivo were evaluated in the castrated mouse VCaP xenograft model. Briefly, 6- to 8-week-old male CB17/scid mice were implanted with 3×10^6 VCaP tumor cells in the flank region. Once the tumors reached a volume of approximately 100 mm^3, the mice were surgically castrated.

[3] = molecular target: T2, AR M750T (Homo sapiens, UniProt P10275, M750T); assay: AR degradation in T-Rex-293 cell line, M750T; assay type: cell-based; conditions: T-Rex-293, ELISA
T2 construct: expressed in transfected cells; host or cells: T-REx-293
T2 sequence (P10275 whole entry M750T): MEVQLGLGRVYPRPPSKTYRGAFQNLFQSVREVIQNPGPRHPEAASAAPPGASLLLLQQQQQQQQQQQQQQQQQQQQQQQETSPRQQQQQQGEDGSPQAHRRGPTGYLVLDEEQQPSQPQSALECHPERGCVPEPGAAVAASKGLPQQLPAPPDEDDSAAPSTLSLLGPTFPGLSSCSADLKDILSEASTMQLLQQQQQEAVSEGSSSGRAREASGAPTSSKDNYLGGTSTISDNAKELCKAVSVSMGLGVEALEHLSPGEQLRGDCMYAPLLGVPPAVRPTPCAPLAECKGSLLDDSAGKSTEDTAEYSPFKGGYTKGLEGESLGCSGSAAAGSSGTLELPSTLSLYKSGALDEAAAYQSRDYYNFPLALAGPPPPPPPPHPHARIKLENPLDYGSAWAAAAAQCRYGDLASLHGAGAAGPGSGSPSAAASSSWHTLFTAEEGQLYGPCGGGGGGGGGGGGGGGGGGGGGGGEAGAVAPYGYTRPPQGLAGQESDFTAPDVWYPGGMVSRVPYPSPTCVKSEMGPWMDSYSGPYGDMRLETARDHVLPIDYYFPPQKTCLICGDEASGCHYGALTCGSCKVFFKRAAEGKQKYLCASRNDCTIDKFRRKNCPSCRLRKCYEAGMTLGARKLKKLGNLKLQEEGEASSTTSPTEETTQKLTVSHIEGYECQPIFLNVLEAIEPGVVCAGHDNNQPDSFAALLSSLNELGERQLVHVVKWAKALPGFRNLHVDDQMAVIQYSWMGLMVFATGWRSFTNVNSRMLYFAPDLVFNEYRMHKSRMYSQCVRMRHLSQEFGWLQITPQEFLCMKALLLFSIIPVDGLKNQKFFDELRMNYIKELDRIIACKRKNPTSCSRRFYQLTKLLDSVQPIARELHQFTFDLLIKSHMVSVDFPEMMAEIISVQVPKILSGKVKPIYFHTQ
Text: as §1, §3

[4] = system: PSA; assay: plasma PSA levels by ELISA, intact VCaP tumor model; assay type: in vivo, mouse
Text: Plasma PSA levels are used as a clinical biomarker of disease progression and are thought to be closely related with the degree of AR activity (Catalona, W. J., Richie, J. P., Ahmann, F. R., et al. Comparison of digital rectal examination and serum prostate specific antigen in the early detection of prostate cancer: results of a multicenter clinical trial of 6,630 men. The Journal of Urology. 1994; 151(5):1283-1290. Cleutjens, K. B., van Eekelen, C. C., van der Korput, H. A., et al. Two androgen response regions cooperate in steroid hormone regulated activity of the prostate-specific antigen promoter. J Biol Chem. 1996; 271(11):6379-6388.). Plasma PSA levels upon Compound A treatment were evaluated by ELISA in samples from the intact VCaP tumor model.

[5] = molecular target: T3, AR H875Y/T878A (Homo sapiens, UniProt P10275, H875Y/T878A); assay: AR degradation in T-Rex-293 cell line, H875Y/T878A; assay type: cell-based; conditions: T-Rex-293, ELISA
T3 construct: expressed in transfected cells; host or cells: T-REx-293
T3 sequence (P10275 whole entry H875Y/T878A): as the sequence (P10275 whole entry M750T) above, with T750M, H875Y, T878A counted along it
Text: as §1, §3

[6] = system: PSA; assay: intracellular PSA ELISA in VCaP cells; assay type: cell-based; conditions: Homo sapiens, CSS + 0.1 nM R1881, 48 hours, read-out: IC50, inhibiting PSA expression
Description: (§4) Intracellular prostate specific antigen (PSA) levels were determined using a PSA enzyme-linked immunosorbent assay (ELISA). […] The cell proliferation was determined using the CellTiter-Glo® assay. […] The CaspaseGlo® assay was carried out to measure the level of apoptosis in cells.
(§5) To evaluate the pharmacological effect of Compound A in vitro, PSA, cell proliferation, and apoptosis assays were carried out in VCaP cells.

[7] = molecular target: T4, AR T878A/S889G (Homo sapiens, UniProt P10275, S889G/T878A); assay: AR degradation in T-Rex-293 cell line, T878A/S889G; assay type: cell-based; conditions: T-Rex-293, ELISA
T4 construct: expressed in transfected cells; host or cells: T-REx-293
T4 sequence (P10275 whole entry T878A/S889G): as the sequence (P10275 whole entry M750T) above, with T750M, T878A, S889G counted along it
Text: as §1, §3

[8] = system: VCaP cells; assay: VCaP cell proliferation in a high androgen environment (R1881); assay type: cell-based, human; conditions: Compound A 300 nM vs enzalutamide 1,000 nM, R1881 0.01 to 1 nM, 5 days
Description: Cell proliferation was determined using the CellTiter Glo® assay.

[9] = molecular target: T5, AR F877L/T878A (Homo sapiens, UniProt P10275, F877L/T878A); assay: AR degradation in T-Rex-293 cell line, F877L/T878A; assay type: cell-based; conditions: T-Rex-293, ELISA
T5 construct: expressed in transfected cells; host or cells: T-REx-293
T5 sequence (P10275 whole entry F877L/T878A): as the sequence (P10275 whole entry M750T) above, with T750M, F877L, T878A counted along it
Text: as §1, §3

[10] = molecular target: T6, AR V716M (Homo sapiens, UniProt P10275, V716M); assay: AR degradation in T-Rex-293 cell line, V716M; assay type: cell-based; conditions: T-Rex-293, ELISA
T6 construct: expressed in transfected cells; host or cells: T-REx-293
T6 sequence (P10275 whole entry V716M): as the sequence (P10275 whole entry M750T) above, with V716M, T750M counted along it
Text: as §1, §3

[11] = molecular target: T7, AR M750V (Homo sapiens, UniProt P10275, M750V); assay: AR degradation in T-Rex-293 cell line, M750V; assay type: cell-based; conditions: T-Rex-293, ELISA
T7 construct: expressed in transfected cells; host or cells: T-REx-293
T7 sequence (P10275 whole entry M750V): as the sequence (P10275 whole entry M750T) above, with T750V counted along it
Text: as §1, §3

[12] = preclinical exposure in the VCaP tumor xenograft mouse model; conditions: CB17/scid, in vivo, oral, 1 mg/kg/day, read-out: AUCinf, minimally efficacious preclinical exposure
Description: Exposure at the 100 mg QD dose (N=6) with mean steady-state Compound A AUC0-24=4,610 ng*hr/mL on Cycle 1 Day 21 achieved the minimally efficacious preclinical exposure associated with tumor growth inhibition in the VCaP tumor xenograft mouse model (AUCinf=3,930 ng*hr/mL at 1 mg/kg/day dose; data not included).

[13] = system: prostate; assay: 10-day prostate involution study in rats; assay type: in vivo, rat; conditions: for Mean (±SEM) prostate weights: 10 days, intact rats
Description: Enzalutamide and Compound A were orally administered once daily at the indicated doses. After 10 days of treatment, the prostate tissue from each rat was isolated and weighed. Treatment groups (n=5 per group) were compared by one way ANOVA. Note: ns: not significant, *: p<0.05, **: p≤0.01.
To substantiate the on-target mechanism of Compound A, a prostate involution study was conducted in rats. […] Twenty-four hours after the last dose, the rats were euthanized, and the prostate organs were isolated and weighed.

[14] = system: VCaP cells; assay: apoptosis in VCaP cells (CaspaseGlo); assay type: cell-based; conditions: Homo sapiens, CSS + 0.1 nM R1881, 72 hours, read-out: EC50, inducing apoptosis
Description: as §4, §5

[15] = system: mutant AR proteins (ligand binding domain mutations); assay: degradation of clinically relevant AR point mutants in HEK293 or T-REx-293 cells; assay type: cell-based, human; conditions: stably transfected
Description: as §2, §3

T1 sequence (P10275 whole entry): as the sequence (P10275 whole entry M750T) above, with T750M counted along it

## COc1cc(O[C@H]2C(C)(C)[C@H](NC(=O)c3ccc(N4CCC(CN5CCN(c6ccc(C(=O)N[C@H]7CCC(=O)NC7=O)c(F)c6)CC5)CC4)cc3)C2(C)C)ccc1C#N [Compound A, 4-(4-((1-(4-(((1R,3R)-3-(4-cyano-3-methoxyphenoxy)-2,2,4,4-tetramethylcyclobutyl)carbamoyl)phenyl)piperidin-4-yl)methyl)piperazin-1-yl)-N—((S)-2,6-dioxopiperidin-3-yl)-2-fluorobenzamide]
[1]
  DC50: 1.5 nM
[2]; 0.1 mg/kg/day QD for 24 days, statistically insignificant
  TGI relative to vehicle control: 45%
[2]; 0.3 mg/kg/day QD for 24 days, statistically insignificant
  TGI relative to vehicle control: 49%
[2]; 1 mg/kg/day QD for 24 days
  TGI relative to vehicle control: 81%
[2]; 3 mg/kg/day QD for 24 days, oral gavage
  TGI relative to vehicle control: 100%
[3]
  DC50: 0.6 nM
[4]; 3 mg/kg and 10 mg/kg vs 20 mg/kg enzalutamide
  plasma PSA levels vs enzalutamide: reduced PSA levels more robustly than 20 mg/kg of enzalutamide
[4]; all 3 doses (10, 3, 1 mg/kg/day), tumor-bearing intact mice
  plasma PSA levels: reduced PSA levels in a dose-dependent manner
[5]
  DC50: 7.7 nM
[6]
  IC50: 4 nM
[7]
  DC50: 3.6 nM
[8]
  antiproliferative effects vs enzalutamide: more potent antiproliferative effects than enzalutamide
[9]
  DC50: 7 nM
[10]
  DC50: 0.4 nM
[11]
  DC50: 1.4 nM
[12]
  AUC(0-inf): 3930 ng·h/mL
[13]; 5 mg/kg/day orally
  Mean (±SEM) prostate weights: 673+105 mg
[13]; 15 mg/kg/day orally
  Mean (±SEM) prostate weights: 384 ± 47 mg
[13]; 45 mg/kg/day orally
  Mean (±SEM) prostate weights: 422 ± 56 mg
[13]; all doses tested (5, 15, 45 mg/kg/day)
  prostate weight reduction compared with enzalutamide: reduced prostate weights to a greater degree at all doses tested
[14]
  EC50: 8 nM
[15]
  degradation of all clinically relevant AR point mutants tested vs wild-type AR: comparable to that observed for wild-type AR
